Assay results taken from the supplement of paper PMC8671470.

Experiments:
Assay in all cases: cell viability (% survival relative to DMSO control); higher = less cytotoxic
Conditions in all cases: 72 h
HL-60 = test system: HL-60
Procedure: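 8x8 drug-combination matrices (0-5000 nM; rosiglitazone and lestaurtinib 0-1000 nM) were run in HL-60 cells for 72 h with a CellTiter-Glo read-out. Survival is normalised to DMSO and 10 µM bortezomib and clipped at 100%. Bliss synergy was analysed in SynergyFinder.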

Mono-Mac-6 = test system: Mono-Mac-6
Procedure: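 8x8 drug-combination matrices (0–5000 nM; rosiglitazone and lestaurtinib 0–1000 nM) were run in Mono-Mac-6 cells for 72 h with CellTiter-Glo read-out. Survival is normalised to DMSO and 10 µM bortezomib and clipped at 100%.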

MV4-11 = test system: MV4-11
Procedure: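 8x8 drug-combination matrices (0–5000 nM; rosiglitazone and lestaurtinib 0–1000 nM) were run in MV4-11 cells for 72 h with CellTiter-Glo read-out. Survival is normalised to DMSO and 10 µM bortezomib and clipped at 100%.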

O=C(C1CC1)N1CC[C@@H](C=C2NNC(=O)N2c2ccc(-c3ccc4occc4c3)cc2)C1 + CS(=O)(=O)N1CCN(Cc2cc3nc(-c4cccc5[nH]ncc45)nc(N4CCOCC4)c3s2)CC1 [Pictilisib]
cell viability [%]
Conditions	drug1 concentration 5 nM	drug1 concentration 10 nM	drug1 concentration 50 nM	drug1 concentration 100 nM	drug1 concentration 500 nM	drug1 concentration 1000 nM	drug1 concentration 5000 nM
HL-60, drug2 concentration 5 nM	93	71.7	66.5	59.9	51.3	56.3	51.5
HL-60, drug2 concentration 10 nM	70	68.5	58.9	60.9	56.7	55.8	52.9
HL-60, drug2 concentration 50 nM	59.4	61.7	54.4	53.3	52.8	53.1	51
HL-60, drug2 concentration 100 nM	60.3	58.5	51.3	51.5	45.6	51.7	52.2
HL-60, drug2 concentration 500 nM	46.9	49	44.4	45.7	34.5	47.1	45
HL-60, drug2 concentration 1000 nM	46.7	50.8	41.3	44.2	48.4	49.9	39.1
HL-60, drug2 concentration 5000 nM	38.6	42.6	40.3	33.2	38.6	43.5	36.2
MV4-11, drug2 concentration 5 nM	> 100	91.3	> 100	89.5	> 100	76.8	> 100
MV4-11, drug2 concentration 10 nM	> 100	89.1	> 100	91.9	72	94.3	> 100
MV4-11, drug2 concentration 50 nM	> 100	99.9	94.2	92	93.5	> 100	56.5
MV4-11, drug2 concentration 100 nM	89.5	96.8	99.6	> 100	> 100	94.6	> 100
MV4-11, drug2 concentration 500 nM	> 100	95.5	> 100	94	94.4	94.2	80.3
MV4-11, drug2 concentration 1000 nM	91.9	71.7	87.8	80.5	87.1	> 100	74.8
MV4-11, drug2 concentration 5000 nM	76.5	49.4	58.1	68.8	69.9	44.4	55.6
Mono-Mac-6, drug2 concentration 5 nM	> 100	94.2	88.6	86.5	92.2	81.2	88.3
Mono-Mac-6, drug2 concentration 10 nM	89.9	> 100	85.6	81	78.2	81.2	93.1
Mono-Mac-6, drug2 concentration 50 nM	80.5	> 100	81.7	69.7	74.8	99	68.1
Mono-Mac-6, drug2 concentration 100 nM	63	75.5	91.8	75.3	> 100	94.4	84.6
Mono-Mac-6, drug2 concentration 500 nM	70	83.9	> 100	87.7	73	86.2	81.4
Mono-Mac-6, drug2 concentration 1000 nM	53.7	71	52.4	87.1	71.3	77.1	69.4
Mono-Mac-6, drug2 concentration 5000 nM	51.6	27.5	37.5	48.3	49.9	24.2	49.3

O=C(C1CC1)N1CC[C@@H](C=C2NNC(=O)N2c2ccc(-c3ccc4occc4c3)cc2)C1 + C[C@H](NC(=O)c1sccc1OCc1ccc(Cl)cc1)c1ccccc1 [as1949490]
cell viability [%]
Conditions	drug1 concentration 5 nM	drug1 concentration 10 nM	drug1 concentration 50 nM	drug1 concentration 100 nM	drug1 concentration 500 nM	drug1 concentration 1000 nM	drug1 concentration 5000 nM
HL-60, drug2 concentration 5 nM	81.9	89	82.7	68	60.7	60.8	51.6
HL-60, drug2 concentration 10 nM	> 100	86.7	79.5	65	58.1	58.4	48.5
HL-60, drug2 concentration 50 nM	99.3	83.4	74.8	57.3	59.3	51.9	42.1
HL-60, drug2 concentration 100 nM	95.7	83.4	68.3	53.2	56.1	48.8	37.7
HL-60, drug2 concentration 500 nM	88.6	78.1	63.5	56	46.3	49.6	38.5
HL-60, drug2 concentration 1000 nM	86.2	76.1	60.1	46.8	43.6	44.1	35.8
HL-60, drug2 concentration 5000 nM	80.8	72.6	57.6	43.4	44.8	40.9	33.3
MV4-11, drug2 concentration 5 nM	> 100	> 100	> 100	83.1	> 100	96.5	> 100
MV4-11, drug2 concentration 10 nM	> 100	> 100	> 100	> 100	> 100	> 100	> 100
MV4-11, drug2 concentration 50 nM	> 100	99	> 100	> 100	> 100	> 100	> 100
MV4-11, drug2 concentration 100 nM	> 100	80.4	> 100	92.8	92.2	> 100	98.4
MV4-11, drug2 concentration 500 nM	> 100	96.5	> 100	> 100	> 100	93.8	> 100
MV4-11, drug2 concentration 1000 nM	> 100	> 100	98	89.7	86.3	> 100	61.8
MV4-11, drug2 concentration 5000 nM	77.3	85.6	71.7	79.5	62	58.4	72
Mono-Mac-6, drug2 concentration 5 nM	77.9	> 100	94.8	82.5	> 100	88.6	91.3
Mono-Mac-6, drug2 concentration 10 nM	> 100	> 100	> 100	84.4	> 100	98.4	> 100
Mono-Mac-6, drug2 concentration 50 nM	> 100	> 100	> 100	> 100	88.9	91.8	> 100
Mono-Mac-6, drug2 concentration 100 nM	90	96.4	> 100	94.7	77.3	> 100	69.7
Mono-Mac-6, drug2 concentration 500 nM	90.5	78	74.2	> 100	> 100	> 100	80.7
Mono-Mac-6, drug2 concentration 1000 nM	95	> 100	97.3	> 100	77.3	91.1	75.6
Mono-Mac-6, drug2 concentration 5000 nM	79	73.5	> 100	96.3	73.3	91.3	54.6
